Assay results: patent US12162820B2 (TAIWANJ PHARMACEUTICALS CO., LTD., priority 2019, dated 2024)

Assays:
Type in all cases: biochemical
HDAC2 = molecular target: T1, HDAC2 (Homo sapiens, UniProt Q92769); assay: HDAC Inhibition Screening Assay (FLUOR DE LYS Fluorimetric Drug Discovery Kit), HDAC2; settings: for inhibition at 2 µM: 2 μM compound; for inhibition at 10 µM: 10 μM compound; for inhibition at 50 µM: 50 μM compound
T1 construct: purchased Enzo Life Sciences
How it was run: (§1)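 Recombinant HDAC1, HDAC2 or HDAC3 was incubated with an acetyl-lysine fluorogenic substrate, and a developer was then added to release the fluorophore. Compounds were tested at 2, 10 and 50 μM, with fluorescence read at 360 or 485 nm excitation and 460 or 530 nm emission. Activity was expressed as a percentage of basal control minus baseline.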

HDAC3 = molecular target: T2, HDAC3 (Homo sapiens, UniProt O15379); assay: HDAC Inhibition Screening Assay (FLUOR DE LYS Fluorimetric Drug Discovery Kit), HDAC3; settings: for inhibition at 2 µM: 2 μM compound; for inhibition at 10 µM: 10 μM compound; for inhibition at 50 µM: 50 μM compound
T2 construct: purchased Enzo Life Sciences
T2 sequence (O15379 whole entry): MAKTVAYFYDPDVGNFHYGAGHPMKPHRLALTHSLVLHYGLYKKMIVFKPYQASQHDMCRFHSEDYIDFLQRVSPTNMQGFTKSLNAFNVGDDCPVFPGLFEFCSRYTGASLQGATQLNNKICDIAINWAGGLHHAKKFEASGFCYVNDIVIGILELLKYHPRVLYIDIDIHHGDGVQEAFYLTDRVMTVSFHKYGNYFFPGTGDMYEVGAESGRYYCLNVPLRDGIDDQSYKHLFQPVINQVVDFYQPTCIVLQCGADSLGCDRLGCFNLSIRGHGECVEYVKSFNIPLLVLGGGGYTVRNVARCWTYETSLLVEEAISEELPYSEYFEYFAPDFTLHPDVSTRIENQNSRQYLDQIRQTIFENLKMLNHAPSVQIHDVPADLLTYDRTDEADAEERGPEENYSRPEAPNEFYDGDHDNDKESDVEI
T2 sequence (O75376 395-489 partner limits assumed): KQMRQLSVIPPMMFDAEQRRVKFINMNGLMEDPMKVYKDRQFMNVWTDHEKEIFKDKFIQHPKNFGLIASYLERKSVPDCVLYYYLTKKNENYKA
How it was run: as §1

ATX (autotaxin) = molecular target: T3, ATX (autotaxin) (Homo sapiens, UniProt Q13822); assay: Autotaxin Inhibition Screening Assay (choline release from LPC, LPC-CR); settings: for inhibition at 4 µM: 4 μM compound; for inhibition at 20 µM: 20 μM compound; for inhibition at 50 µM: 50 μM compound
T3 construct: purchased Cayman 10803
How it was run: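 20 ng ATX incubated with 100 μM 14:0 LPC in 50 mM Tris pH 8.0, 0.01% Triton X-100, 50 mM CaCl2, with choline oxidase/HRP/2 mM HVA coupling; compounds at 4, 20 and 50 μM. HVA fluorescence (ex/em 320/450 nm) read every 60 s for 90 min; inhibition % from slopes corrected for blank versus vehicle.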

HDAC1 = molecular target: T4, HDAC1 (Homo sapiens, UniProt Q13547); assay: HDAC Inhibition Screening Assay (FLUOR DE LYS Fluorimetric Drug Discovery Kit), HDAC1; settings: for inhibition at 2 µM: 2 μM compound; for inhibition at 10 µM: 10 μM compound; for inhibition at 50 µM: 50 μM compound
T4 construct: purchased Enzo Life Sciences
T4 sequence (Q13547 whole entry): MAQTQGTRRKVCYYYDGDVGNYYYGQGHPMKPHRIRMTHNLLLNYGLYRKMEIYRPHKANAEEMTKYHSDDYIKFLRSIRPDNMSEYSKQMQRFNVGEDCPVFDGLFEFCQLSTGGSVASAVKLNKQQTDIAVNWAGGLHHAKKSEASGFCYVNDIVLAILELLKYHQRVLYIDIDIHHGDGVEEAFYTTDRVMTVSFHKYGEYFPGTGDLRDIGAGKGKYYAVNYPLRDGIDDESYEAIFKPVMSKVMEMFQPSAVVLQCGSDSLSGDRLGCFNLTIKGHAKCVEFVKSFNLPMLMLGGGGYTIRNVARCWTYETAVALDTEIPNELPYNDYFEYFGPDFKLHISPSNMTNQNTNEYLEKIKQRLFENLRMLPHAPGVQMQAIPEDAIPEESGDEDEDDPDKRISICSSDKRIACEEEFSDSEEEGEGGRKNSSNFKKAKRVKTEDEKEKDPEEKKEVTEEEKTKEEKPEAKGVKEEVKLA
How it was run: as §1

T1 sequence (Q92769 whole entry): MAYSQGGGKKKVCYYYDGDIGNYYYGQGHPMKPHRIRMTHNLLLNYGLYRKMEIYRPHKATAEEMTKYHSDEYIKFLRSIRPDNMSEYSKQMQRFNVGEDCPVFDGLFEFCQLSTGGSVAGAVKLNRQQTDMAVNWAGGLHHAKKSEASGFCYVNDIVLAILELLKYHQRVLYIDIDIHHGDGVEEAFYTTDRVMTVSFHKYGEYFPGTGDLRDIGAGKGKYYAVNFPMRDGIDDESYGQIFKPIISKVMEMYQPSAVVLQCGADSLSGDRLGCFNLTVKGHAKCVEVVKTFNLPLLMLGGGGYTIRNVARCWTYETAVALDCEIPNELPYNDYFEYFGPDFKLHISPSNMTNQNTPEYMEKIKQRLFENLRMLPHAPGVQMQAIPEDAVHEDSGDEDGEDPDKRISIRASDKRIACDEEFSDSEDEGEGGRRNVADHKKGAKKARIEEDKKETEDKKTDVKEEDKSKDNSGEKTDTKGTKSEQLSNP

Row | Compound | inhibition at 2 µM (HDAC2) | inhibition at 10 µM (HDAC2) | inhibition at 50 µM (HDAC2) | inhibition at 2 µM (HDAC3) | inhibition at 10 µM (HDAC3) | inhibition at 50 µM (HDAC3) | inhibition at 4 µM (ATX (autotaxin)) | inhibition at 20 µM (ATX (autotaxin)) | inhibition at 50 µM (ATX (autotaxin)) | inhibition at 2 µM (HDAC1) | inhibition at 10 µM (HDAC1) | inhibition at 50 µM (HDAC1)
1 | COc1ccc(CCNC2CCc3cc(/C=C/C(=O)Nc4ccc(F)cc4N)ccc32)cc1 (stereo not drawn) [Compound 51, (E)-N-(2-amino-4-fluorophenyl)-3-(1-((4-methoxyphenethyl)amino)-2,3-dihydro-1H-inden-5-yl) acrylamide] | 50 to 80% | > 80% | > 80% | > 80% | > 80% | > 80% | < 50% | < 50% | < 50% | < 50% | 50 to 80% | > 80%
2 | COc1ccc(CCNC2CCc3cc(/C=C/C(=O)NO)ccc32)cc1 (stereo not drawn) [Compound 52, (E)-N-hydroxy-3-(1-((4-methoxyphenethyl)amino)-2,3-dihydro-1H-inden-5-yl)acrylamide] | > 80% | > 80% | > 80% | > 80% | > 80% | > 80% | < 50% | < 50% | < 50% | > 80% | > 80% | > 80%
3 | O=C(/C=C/c1ccc2c(c1)CCC2NCCc1ccc(F)cc1)NO (stereo not drawn) [Compound 53] | > 80% | > 80% | > 80% | > 80% | > 80% | > 80% | < 50% | < 50% | < 50% | > 80% | > 80% | > 80%
4 | O=C(/C=C/c1ccc2c(c1)CCC2NCCc1cc(C(F)(F)F)cc(C(F)(F)F)c1)NO (stereo not drawn) [Compound 54, (E)-3-(1-((3,5-bis(trifluoromethyl)phenethyl)amino)-2,3-dihydro-1H-inden-5-yl)-N-hydroxyacrylamide] | > 80% | > 80% | > 80% | > 80% | > 80% | > 80% | < 50% | < 50% | < 50% | > 80% | > 80% | > 80%
5 | O=C(/C=C/c1ccc2c(c1)CCC2NCCc1cc(Cl)cc(Cl)c1)NO (stereo not drawn) [Compound 55, (E)-3-(1-((3,5-dichlorophenethyl)amino)-2,3-dihydro-1H-inden-5-yl)-N-hydroxyacrylamide] | > 80% | > 80% | > 80% | > 80% | > 80% | > 80% | < 50% | < 50% | < 50% | > 80% | > 80% | > 80%
6 | CN(C)c1ccc(CCNC2CCc3cc(/C=C/C(=O)NO)ccc32)cc1 (stereo not drawn) [Compound 56, (E)-3-(1-((4-(dimethylamino)phenethyl)amino)-2,3-dihydro-1H-inden-5-yl)-N-hydroxyacrylamide] | > 80% | > 80% | > 80% | > 80% | > 80% | > 80% | < 50% | < 50% | < 50% | > 80% | > 80% | > 80%
7 | Nc1cc(F)ccc1NC(=O)/C=C/c1ccc2c(c1)CCC2NCCc1c[nH]c2ccccc12 (stereo not drawn) [Compound 57, (E)-3-(1-((2-(1H-indol-3-yl)ethyl)amino)-2,3-dihydro-1H-inden-5-yl)-N-(2-amino-4-fluorophenyl)acrylamide] | 50 to 80% | > 80% | > 80% | > 80% | > 80% | > 80% | < 50% | < 50% | < 50% | < 50% | 50 to 80% | > 80%
8 | O=C(/C=C/c1ccc2c(c1)CCC2NCCc1c[nH]c2ccccc12)NO (stereo not drawn) [Compound 58, (E)-3-(1-((2-(1H-indol-3-yl)ethyl)amino)-2,3-dihydro-1H-inden-5-yl)-N-hydroxyacrylamide] | > 80% | > 80% | > 80% | > 80% | > 80% | > 80% | < 50% | < 50% | 50 to 80% | > 80% | > 80% | > 80%
9 | Cc1[nH]c2ccccc2c1CCNC1CCc2cc(/C=C/C(=O)Nc3ccc(F)cc3N)ccc21 (stereo not drawn) [Compound 59, (E)-N-(2-amino-4-fluorophenyl)-3-(1-((2-(2-methyl-1H-indol-3-yl)ethyl)amino)-2,3-dihydro-1H-inden-5-yl)acrylamide] | > 80% | > 80% | > 80% | > 80% | > 80% | > 80% | < 50% | < 50% | < 50% | 50 to 80% | > 80% | > 80%
10 | Cc1[nH]c2ccccc2c1CCNC1CCc2cc(/C=C/C(=O)NO)ccc21 (stereo not drawn) [Compound 60, (E)-N-hydroxy-3-(1-((2-(2-methyl-1H-indol-3-yl)ethyl)amino)-2,3-dihydro-1H-inden-5-yl)acryl amide] | > 80% | > 80% | > 80% | > 80% | > 80% | > 80% | < 50% | < 50% | < 50% | > 80% | > 80% | > 80%
11 | O=C(/C=C/c1ccc2c(c1)CCCC2NCCc1c[nH]c2ccccc12)NO (stereo not drawn) [Compound 61, (E)-3-(5-((2-(1H-indol-3-yl)ethyl)amino)-5,6,7,8-tetrahydronaphthalen-2-yl)-N-hydroxy acrylamide] | > 80% | > 80% | > 80% | > 80% | > 80% | > 80% | < 50% | < 50% | < 50% | > 80% | > 80% | > 80%
12 | Cc1[nH]c2ccccc2c1CCNC1CCCc2cc(/C=C/C(=O)Nc3ccc(F)cc3N)ccc21 (stereo not drawn) [Compound 62, (E)-N-(2-amino-4-fluorophenyl)-3-(5-((2-(2-methyl-1H-indol-3-yl)ethyl)amino)-5,6,7,8-tetrahydronaphthalen-2-yl)acrylamide] | > 80% | > 80% | > 80% | 50 to 80% | > 80% | > 80% | < 50% | < 50% | < 50% | 50 to 80% | > 80% | > 80%
